Experimental data reported in US20240041042A1, “1-(PYRIDYL)-5-AZINYLPYRAZOLE DERIVATIVES, AND THEIR USE FOR CONTROL OF UNDESIRED PLANT GROWTH” (Bayer Aktiengesellschaft, priority 2020, published 2024).

Experiments:
Format in all cases: in vivo
[1] = system: Abutilon theophrasti (ABUTH); experiment: Pre-emergence herbicidal action against ABUTH; conditions: Dosage column 320 g/ha (title prints 3200 g/ha); scored visually after about 3 weeks; 100% = plants have died
Method in brief: (§1)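 Read-out is visual percent damage relative to untreated pots, with 100% meaning dead plants and 0% meaning no difference, assessed roughly three weeks after treatment. Compounds were applied pre-emergence to the covering soil at up to 320 g/ha.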

[2] = system: Alopecurus myosuroides (ALOMY); experiment: Pre-emergence herbicidal action against ALOMY; conditions: scored visually after about 3 weeks, 100% = plants have died
Method in brief: as §1

[3] = system: Amaranthus retroflexus (AMARE); experiment: Pre-emergence herbicidal action against AMARE; conditions: visual scoring after about 3 weeks vs untreated controls
Method in brief: as §1

Avena fatua (AVEFA) [4] = experiment: Pre-emergence herbicidal action against AVEFA; conditions: 320 g/ha, visual scoring after about 3 weeks vs untreated controls
Method in brief: as §1

[5] = system: Digitaria sanguinalis (DIGSA); experiment: Pre-emergence herbicidal action against DIGSA
Method in brief: as §1

[6] = system: Echinochloa crus-galli (ECHCG); experiment: Pre-emergence herbicidal action against ECHCG
Method in brief: as §1

Lolium rigidum (LOLRI) [7] = experiment: Pre-emergence herbicidal action against LOLRI
Method in brief: as §1

[8] = system: Matricaria inodora (MATIN); experiment: Pre-emergence herbicidal action against MATIN
Method in brief: as §1

[9] = system: Pharbitis purpurea (PHBPU); experiment: Pre-emergence herbicidal action against PHBPU
Method in brief: as §1

[10] = system: Polygonum convolvulus (POLCO); experiment: Pre-emergence herbicidal action against POLCO
Method in brief: as §1

Setaria viridis (SETVI) [11] = experiment: Pre-emergence herbicidal action against SETVI
Method in brief: as §1

[12] = system: Verconica persica (VERPE); experiment: Pre-emergence herbicidal action against VERPE
Method in brief: as §1

Viola tricolor (VIOTR) [13] = experiment: Pre-emergence herbicidal action against VIOTR
Method in brief: as §1

[14] = system: Abutilon theophrasti (ABUTH); experiment: Post-emergence herbicidal action against ABUTH; conditions: 320 g/ha, visual rating about 3 weeks after treatment vs untreated controls (100% = plants have died, 0% = like control plants)
Method in brief: (§2)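 Greenhouse plants sprayed at the one-leaf stage, 2–3 weeks after sowing, with WP or EC formulations plus 0.5% additive at 600 l/ha water. Activity rated visually after about 3 weeks versus untreated controls (100% = dead, 0% = like control), at 320 g/ha or lower.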

[15] = system: Alopecurus myosuroides (ALOMY); experiment: Post-emergence herbicidal action against ALOMY; conditions: visual rating about 3 weeks after treatment vs untreated controls (100% = plants have died, 0% = like control plants)
Method in brief: as §2

Avena fatua (AVEFA) [16] = experiment: Post-emergence herbicidal action against AVEFA; conditions: visual rating about 3 weeks after treatment
Method in brief: as §2

[17] = system: Digitaria sanguinalis (DIGSA); experiment: Post-emergence herbicidal action against DIGSA; conditions: visual rating about 3 weeks after treatment
Method in brief: as §2

[18] = system: Echinochloa crus-galli (ECHCG); experiment: Post-emergence herbicidal action against ECHCG
Method in brief: as §2

Lolium rigidum (LOLRI) [19] = experiment: Post-emergence herbicidal action against LOLRI
Method in brief: as §2

[20] = system: Pharbitis purpurea (PHBPU); experiment: Post-emergence herbicidal action against PHBPU
Method in brief: as §2

[21] = system: Polygonum convolvulus (POLCO); experiment: Post-emergence herbicidal action against POLCO; conditions: dosage 320 g/ha
Method in brief: as §2

Setaria viridis (SETVI) [22] = experiment: Post-emergence herbicidal action against SETVI
Method in brief: as §2

[23] = system: Verconica persica (VERPE); experiment: Post-emergence herbicidal action against VERPE
Method in brief: as §2

Viola tricolor (VIOTR) [24] = experiment: Post-emergence herbicidal action against VIOTR
Method in brief: as §2

[25] = system: Amaranthus retroflexus (AMARE); experiment: Post-emergence herbicidal action against AMARE
Method in brief: as §2

Oryza sativa (ORYSA) = conditions: crop plant compatibility, 80 g/ha, effect in comparison to untreated controls
Method in brief: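 Foliar application at the one-leaf stage: WP/EC formulation, 0.5% additive, 600 l/ha water. Greenhouse-grown in sandy loam. Endpoint is visual % injury relative to untreated controls at about 3 weeks.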

[26] = 80 g/ha, visual scoring after about 3 weeks vs untreated controls

| SMILES | Pre-emergence action against ABUTH [1] | Pre-emergence action against ALOMY ([2]; 320 g/ha) | Pre-emergence action against AMARE in % ([3]; 80 g/ha) | Pre-emergence action against AMARE in % ([3]; 320 g/ha) | Pre-emergence action against DIGSA in % [5, 26] | Pre-emergence action against DIGSA in % ([5]; dosage 320 g/ha) | Pre-emergence action against ECHCG in % ([6]; dosage 320 g/ha) | Pre-emergence action against LOLRI in % (Lolium rigidum (LOLRI) [7]; dosage 320 g/ha) | Pre-emergence action against MATIN in % ([8]; dosage 80 g/ha) | Pre-emergence action against MATIN in % ([8]; dosage 320 g/ha) | Pre-emergence action against PHBPU in % ([9]; dosage 320 g/ha) | Pre-emergence action against POLCO in % ([10]; dosage 80 g/ha) | Pre-emergence action against POLCO in % ([10]; dosage 320 g/ha) | Pre-emergence action against SETVI in % (Setaria viridis (SETVI) [11]; dosage 80 g/ha) | Pre-emergence action against SETVI in % (Setaria viridis (SETVI) [11]; dosage 320 g/ha) | Pre-emergence action against VERPE in % ([12]; dosage 320 g/ha) | Pre-emergence action against VIOTR in % (Viola tricolor (VIOTR) [13]; 320 g/ha, Viola tricolor) | Pre-emergence action against VIOTR in % (Viola tricolor (VIOTR) [13]; dosage 80 g/ha) | Post-emergence action against ALOMY in % ([15]; 80 g/ha) | Post-emergence action against ALOMY in % ([15]; 320 g/ha) | also measured |
| --- | --- | --- | --- | --- | --- | --- | --- | --- | --- | --- | --- | --- | --- | --- | --- | --- | --- | --- | --- | --- | --- |
| COC(=O)[C@H](C)COC(=O)COc1nn(-c2ccccn2)c(-c2cncc(F)c2)c1Br [Example I-195] | 80% | 90% | 90% | 100% | 90% | 100% | 100% | 100% | 90% | 90% | 90% | 90% | 100% | 100% | 100% | 100% | 100% | 80% | 80% | 90% | Pre-emergence action against ALOMY ([2]; 80 g/ha): 80%; Pre-emergence action against AVEFA in % (Avena fatua (AVEFA) [4]): 90%; Pre-emergence action against LOLRI in % (Lolium rigidum (LOLRI) [7]; dosage 80 g/ha): 80%; Post-emergence action against ABUTH in % [14]: 90%; Post-emergence action against AVEFA in % (Avena fatua (AVEFA) [16]; 320 g/ha): 90%; Post-emergence action against DIGSA in % ([17]; 80 g/ha): 90%; Post-emergence action against DIGSA in % ([17]; 320 g/ha): 90%; Post-emergence action against ECHCG in % ([18]; dosage 320 g/ha): 80%; Post-emergence action against LOLRI in % (Lolium rigidum (LOLRI) [19]; dosage 320 g/ha): 80%; Post-emergence action against PHBPU in % ([20]; dosage 80 g/ha): 90%; Post-emergence action against PHBPU in % ([20]; dosage 320 g/ha): 90%; Post-emergence action against POLCO in % [21]: 80%; Post-emergence action against SETVI in % (Setaria viridis (SETVI) [22]; dosage 80 g/ha): 90%; Post-emergence action against SETVI in % (Setaria viridis (SETVI) [22]; dosage 320 g/ha): 90%; Post-emergence action against VERPE in % ([23]; 320 g/ha, VERPE): 80%; Post-emergence action against VERPE in % ([23]; dosage 80 g/ha): 80%; Post-emergence action against VIOTR in % (Viola tricolor (VIOTR) [24]; 80 g/ha): 80%; Post-emergence action against VIOTR in % (Viola tricolor (VIOTR) [24]; 320 g/ha): 80% |
| COC(=O)C(C)COC(=O)COc1nn(-c2ccccn2)c(-c2cncc(F)c2)c1Cl (stereo not shown) [Example I-221] | 80% | 90% | 80% | 90% | 90% | 100% | 100% | 100% | 90% | 90% | 90% | 80% | 90% | 90% | 100% | 90% | 90% | 90% | 80% | 80% | Pre-emergence action against ECHCG in % ([6]; dosage 80 g/ha): 90%; Pre-emergence action against LOLRI in % (Lolium rigidum (LOLRI) [7]; dosage 80 g/ha): 80%; Pre-emergence action against PHBPU in % ([9]; dosage 80 g/ha): 90%; Post-emergence action against AMARE in % ([25]; 80 g/ha, visual rating about 3 weeks after treatment vs untreated controls (100% = plants have died, 0% = like control plants)): 80%; Post-emergence action against AMARE in % ([25]; 320 g/ha, visual rating about 3 weeks after treatment): 90%; Post-emergence action against AVEFA in % (Avena fatua (AVEFA) [16]; 320 g/ha): 80%; Post-emergence action against DIGSA in % ([17]; 320 g/ha): 80%; Post-emergence action against ECHCG in % ([18]; dosage 80 g/ha): 80%; Post-emergence action against ECHCG in % ([18]; dosage 320 g/ha): 80%; Post-emergence action against LOLRI in % (Lolium rigidum (LOLRI) [19]; dosage 80 g/ha): 80%; Post-emergence action against LOLRI in % (Lolium rigidum (LOLRI) [19]; dosage 320 g/ha): 90%; Post-emergence action against PHBPU in % ([20]; dosage 80 g/ha): 90%; Post-emergence action against PHBPU in % ([20]; dosage 320 g/ha): 100%; Post-emergence action against SETVI in % (Setaria viridis (SETVI) [22]; dosage 80 g/ha): 90%; Post-emergence action against SETVI in % (Setaria viridis (SETVI) [22]; dosage 320 g/ha): 90%; Post-emergence action against VIOTR in % (Viola tricolor (VIOTR) [24]; 80 g/ha): 80%; Post-emergence action against VIOTR in % (Viola tricolor (VIOTR) [24]; 320 g/ha): 80%; Post-emergence action against ORYSA in % (Oryza sativa (ORYSA)): 20% |
| C[C@@H](Oc1nn(-c2nc(F)ccc2F)c(-c2ccc(F)nc2)c1C1CC1)C(=O)O [Example I-296] | 80% | 100% | 80% | 90% | 90% | 100% | 100% | 100% | 80% | 90% | 90% | 80% | 90% | 90% | 100% | 100% | 100% | 90% | 80% | 90% | Pre-emergence action against ALOMY ([2]; 80 g/ha): 80%; Pre-emergence action against AVEFA in % (Avena fatua (AVEFA) [4]): 90%; Pre-emergence action against VERPE in % ([12]; dosage 80 g/ha): 90%; Post-emergence action against ABUTH in % [14]: 80%; Post-emergence action against AVEFA in % (Avena fatua (AVEFA) [16]; 80 g/ha): 80%; Post-emergence action against AVEFA in % (Avena fatua (AVEFA) [16]; 320 g/ha): 80%; Post-emergence action against DIGSA in % ([17]; 80 g/ha): 80%; Post-emergence action against DIGSA in % ([17]; 320 g/ha): 90%; Post-emergence action against ECHCG in % ([18]; dosage 80 g/ha): 80%; Post-emergence action against ECHCG in % ([18]; dosage 320 g/ha): 80%; Post-emergence action against LOLRI in % (Lolium rigidum (LOLRI) [19]; dosage 80 g/ha): 80%; Post-emergence action against LOLRI in % (Lolium rigidum (LOLRI) [19]; dosage 320 g/ha): 80%; Post-emergence action against PHBPU in % ([20]; dosage 320 g/ha): 90%; Post-emergence action against POLCO in % [21]: 80%; Post-emergence action against SETVI in % (Setaria viridis (SETVI) [22]; dosage 320 g/ha): 80%; Post-emergence action against VERPE in % ([23]; 320 g/ha, VERPE): 80%; Post-emergence action against VIOTR in % (Viola tricolor (VIOTR) [24]; 80 g/ha): 80%; Post-emergence action against VIOTR in % (Viola tricolor (VIOTR) [24]; 320 g/ha): 80%; Post-emergence action against ORYSA in % (Oryza sativa (ORYSA)): 0% |
